Measured values from patent US20060003992A1, “New drug combinations” (Pharmacia & Upjohn Company, LLC, priority 2001, published 2006).

Tested on: mice
Assay: conditioned avoidance response assay
Format: in vivo
Settings: tested 20 min after
Experimental: Eleven mice per sample group are tested using a conditioned avoidance response assay, which can be used to predict the likelihood of possible detrimental side effects associated with the administration of a neuroleptic agent. The regimen included a pre-treatment with either saline or reboxetine (at a dosage of 6 mg/kg, i.p.) followed thirty minutes afterwards by treatment with either saline or raclopride (0.05 mg/kg or 0.10 mg/kg, s.c.). The mice are tested in the assay twenty minutes after administration of the saline or raclopride. The mean average avoidance as measured by the assay for the six different sample groups are as follows: […]

Row | Structure (SMILES) | mean average avoidance (reboxetine 6 mg/kg i.p. pre-treatment, 30 min later saline) | mean average avoidance (saline pre-treatment, 30 min later raclopride 0.05 mg/kg s.c.) | mean average avoidance (saline pre-treatment, 30 min later raclopride 0.10 mg/kg s.c.)
1 | CCOc1ccccc1OC(c1ccccc1)C1CNCCO1 (stereo not drawn) [reboxetine] | 100 |  | 
2 | CCN1CCC[C@H]1CNC(=O)c1c(O)c(Cl)cc(Cl)c1OC [raclopride] |  | 90 | 70
